Experimental data from patent US20090004112A1, “METHODS FOR THE TREATMENT OF NEURODEGENERATIVE DISEASES USING NMDA RECEPTOR GLYCINE SITE ANTAGONISTS” (THE TRUSTEES OF COLUMBIA UNIVERSITY IN THE CITY OF NEW YORK, priority 2006, published 2009).

Columns and labels:
[1] = tested on: wild-type LRRK2 overexpressing cells; test: Process length in wild-type LRRK2 overexpressing primary cortical neurons; assay type: cell-based, rat; conditions: 10 μM
Source text: FIGS. 8A-8B. […] N=25 for each group. […] N=10 for each group.
Cell Culture and Transfection.

[2] = tested on: PD-associated LRRK2 mutant; test: Formation of LC3-GFP labeled aggregates in neurites / PD-associated LRRK2 pathology; assay type: cell-based
Source text: A method is disclosed for treating a neurodegenerative disease, for example, Parkinson's Disease associated with a mutant of leucine-rich repeat kinase-2 (LRRK2), with NMDA antagonists. The methods include assessing accumulation of LC3-GFP labeled aggregates. The methods may be carried out on primary neurons in vitro in a cell culture, or in vivo in an animal. In one embodiment, the cell is a post-mitotic neuron. In another embodiment, the post-mitotic neuron is a cortical neuron, a dopamine neuron, or a sympathetic neuron.
Mutations in LRRK2 underlie an autosomal dominant, inherited form of Parkinson's disease (PD) that mimics all of the clinical features of the common sporadic form of PD. The LRRK2 protein includes putative GTPase, protein kinase, WD40 repeat, and leucine rich repeat (LRR) domains of unknown function.

Structure (SMILES): O=C1CC(c2ccccc2)Oc2ccccc21 (stereo not shown) [flavanone]
- process length in wild-type LRRK2 overexpressing cells [1]: do not alter process length

Structure (SMILES): Oc1ccc(O)cc1 [hydroquinone]
- process length in wild-type LRRK2 overexpressing cells [1]: do not alter process length

Structure (SMILES): Nc1ccccc1C(=O)CC(N)C(=O)O (stereo not shown) [kynurenine]
- process length in wild-type LRRK2 overexpressing cells [1]: do not alter process length

Structure (SMILES): O=c1c(-c2cccc(Oc3ccccc3)c2)c(O)[nH]c2cc(Cl)ccc12 [L-701,324, 7-chloro-2-hydroxy-3-[3-(phenoxy)phenyl]-1H-quinolin-4-one]
- PD-associated LRRK2 pathology [2]: ameliorated
- formation of LC3-GFP labeled aggregates in neurites [2]: ameliorated

Structure (SMILES): N[C@@H](CCC(=O)N[C@@H](CS)C(=O)NCC(=O)O)C(=O)O [glutathione]
- process length in wild-type LRRK2 overexpressing cells [1]: do not alter process length

Structure (SMILES): NC1(C(=O)O)CCC1 [1-aminocyclobutane carboxylic acid]
- process length in wild-type LRRK2 overexpressing cells [1]: do not alter process length
